# What was measured:
# CYP2E1 = CYP2E1 (Homo sapiens, UniProt P05181); experiment: Human liver microsomal CYP2E1, chlorzoxazone 6-hydroxylation; settings: human;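 also: chlorzoxazone added as substrate, 6-hydroxychlorzoxazone formation quantified by LC/MS/MS after 30 min at 37 °C with NADP+ regenerating system, compared against solvent control without test sample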
# [1] = target: human liver microsomal cytochrome P450 2E1 (CYP2E1) (Homo sapiens, UniProt P05181); experiment: as above
# amidase = experiment: Mouse liver microsomal amidase, isoniazid to isonicotinic acid; assay type: biochemical
# Description: Mouse liver microsomes were used as the source of amidase, and isoniazid was used as the amidase metabolism drugs. quantitative isoniazid was catalyzed into metabolites isonicotinic acid (INA) by amidase, and was used as the index for measurement of the amidase activity for establishment of the platform for screening in vitro amidase activity inhibitors. The HPLC system includes a Shimadzu the LC-LOAD pump, 1 Shimadzu system control and a Shimadzu autosampler (Shimadzu Scientific Instrument, Japan). A C18 column (particle size 5 μm, inner diameter of 50×4.6 mm, 25 cm) containing 70% methanol and 30% ammonium formate (50 mM, pH=2.5) of the mobile phase for HPLC separation, and the experimental steps are outlined as follows:
# (2) An aliquot of 150 μL mouse liver microsomal solution was added to 100 μL isoniazid solution in 35 μL 67 mM potassium phosphate buffer solution ([…], pH=7) with a final concentration at 3 mM, and then mixed thoroughly with 15 μL amidase inhibitor (deionized water was added in the control group). (3) Incubation at 37° C. water bath for 30 minutes. (4) An aliquot of 300 μL acetonitrile (ACN) was added and mixed thoroughly, and incubated for 6 minutes. (5) An aliquot of 30 μL perchloric acid was then mixed and incubated for 6 minutes. (6) The mixture was centrifuged at 13000 g for 6 minutes. (7) After centrifugation, 100 μL of the supernatant was injected into HPLC. (8) Methanol ammonium formate (50 mM, pH=2.5)=70:30 (V/V) was selected as the mobile phase, and the flow rate was controlled at […] and detected at 270 nm UV. […] The amidase inhibition % was then calculated using the following formula: […]
# [2] = target: cytochrome P450 2E1 (CYP2E1) (Homo sapiens, UniProt P05181); experiment: CYP2E1 High Throughput Inhibitor Screening Kit, cDNA synthesized microsomal CYP2E1 (MFC to HFC); settings: for Minimum Effective Dose: Table 3, minimum tested concentration (mg/L) × volume of human liver and intestine (3L)
# Sequence of cytochrome P450 2E1 (CYP2E1) (P05181 whole entry): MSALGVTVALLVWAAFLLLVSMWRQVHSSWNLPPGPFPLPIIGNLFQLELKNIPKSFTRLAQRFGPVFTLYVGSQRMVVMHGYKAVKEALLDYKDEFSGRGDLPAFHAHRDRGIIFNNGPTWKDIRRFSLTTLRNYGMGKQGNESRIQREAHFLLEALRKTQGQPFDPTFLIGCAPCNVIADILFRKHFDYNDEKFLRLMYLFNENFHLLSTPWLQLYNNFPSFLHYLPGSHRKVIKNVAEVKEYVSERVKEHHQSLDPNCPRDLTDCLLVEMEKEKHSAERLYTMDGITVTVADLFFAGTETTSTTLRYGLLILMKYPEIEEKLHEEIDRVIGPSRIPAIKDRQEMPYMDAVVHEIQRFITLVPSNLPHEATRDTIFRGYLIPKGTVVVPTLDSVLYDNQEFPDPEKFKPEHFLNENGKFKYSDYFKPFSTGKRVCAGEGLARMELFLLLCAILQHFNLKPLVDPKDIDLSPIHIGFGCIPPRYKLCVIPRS
# Description: CYP2E1 High Throughput Inhibitor Screening Kit (BD Bioscience, USA) was used to screen the cytochrome P450 (CYP2E1) inhibitors from 22 Chinese medicine guiding drugs and 10 excipients and microsomal cytochrome P450 (CYP2E1) was synthesized from cDNA (BD Bioscience, USA). The principle of the screening kit is to measure the percentage of CYP2E inhibition, after adding the test sample to substrate MFC (7-Methoxy-4-trifluoromethyl coumarin) and cytochrome P450 (CYP2E1), by measuring the synthesis of standard CYP2E1 metabolite (HFC, 7-Hydroxy-4-trifluoromethyl coumarin) and use control HFC as baseline.
# a. 149 μl NADPH-Cofactor Mix and 1 μl 20 mM DDTC were added to the #1 well in a 96-well plate and mixed thoroughly,
# b. Add 100 μl Cofactor/acetonitrile mix to #2 to #12 wells, and well #1 to #8 are positive control. Well #9 and 10 are control and well #11 and #12 are blank,
# c. […] Preparation of Experimental Groups: a. […] Transfer 50 μl from well #1 and #2 and added to well #3 and mixed thoroughly (triplicate for each sample), 3. Initiation and Termination of the Reaction: a. The 96-well plate was incubated at 37° C. for […], b. 100 μl of Enzyme/Substrate Mix was added to every well and mixed thoroughly except the blank wells, c. The 96-well plate was incubated at 37° C. for 40 min, d. 75 μl Stop Solution was added to every well and mixed thoroughly, e. Immediately add 100 μl Enzyme/Substrate Mix to blank wells and mixed thoroughly, f. Measure with a Fluoroskan Ascent FL (Thermo Electron Corporation, Finland) with excitation at 405 nm and emission at 538 nm, 4. The fluorescence was transverse into CYP 2E1 metabolite standard (HFC) concentration (pmol) and the percentage (%) of CYP 2E1 inhibition was calculated using control as baseline by following equation: […]
# [3] = human liver microsomes, pH 7.4, probe Chlorzoxazone
# [4] = Table 6, minimum tested concentration (mg/L) × volume of human liver and intestine (3 L)
# Sequence of CYP2E1 (P05181 whole entry): as above
# Sequence of human liver microsomal cytochrome P450 2E1 (CYP2E1) (P05181 whole entry): as above
SMILES,"inhibition at 30 min, 16.5 µM (CYP2E1; [3])","inhibition at 30 min, 33 µM (CYP2E1; [3])","inhibition at 30 min, 66 µM (CYP2E1; [3])",Minimum Effective Dose ([1]; Table 7),"Minimum Effective Dose [1, 4]",Amidase inhibition (amidase; 1 uM),Amidase inhibition (amidase; 10 uM),Amidase inhibition (amidase; 100 uM),further results
O.OC[C@H]1O[C@@H](O[C@H]2[C@H](O)[C@@H](O)C(O)O[C@@H]2CO)[C@H](O)[C@@H](O)[C@H]1O (some centres unmarked) [Lactose monohydrate],7.8 ± 2.2%,3.9 ± 2.3%,8.7 ± 3.8%,18 mg,–,–,–,–,–
O=c1cc(-c2ccc(O)c(O)c2)oc2cc(O[C@@H]3O[C@H](CO)[C@@H](O)[C@H](O)[C@H]3O)cc(O)c12 [Luteolin-7-Glucoside],–,–,–,–,24 mg,3.2 ± 0.8%,8.7 ± 1.9%,12.9 ± 3.1%,Inhibition of CYP 2E1 ([1]; 16.5 μM): 42.96 ± 5.10%; Inhibition of CYP 2E1 ([1]; 33 μM): 55.87 ± 0.67%; Inhibition of CYP 2E1 ([1]; 66 μM): 60.26 ± 1.11%
O=c1cc(-c2ccc(O)c(O)c2)oc2cc(O)cc(O)c12 [Luteolin],–,–,–,–,16 mg,6.1 ± 9.1%,23.0 ± 6.0%,47.5 ± 6.2%,–
CC1CCC(C(C)C)C(O)C1 (centres unmarked) [Menthol],–,–,–,8 mg,–,–,–,–,"inhibition at 30 min, 0.08 % (w/v) (CYP2E1; [3]): 20.8 ± 2.1%; inhibition at 30 min, […] (w/v) (CYP2E1; [3]): 10.5 ± 0.4%; inhibition at 30 min, 0.167 % (w/v) (CYP2E1; microsomes, pH 7.4): 30.8 ± 0.3%"
COC(=O)c1ccc(O)cc1 [Methylparaben],4.6 ± 3.2%,-14 ± 2.2%,-21.5 ± 2%,8 mg,–,–,–,–,–
O=c1c(O)c(-c2ccc(O)cc2O)oc2cc(O)cc(O)c12 [Morin],–,–,–,–,16 mg,−16.6 ± 4.8%,9.1 ± 1.7%,59.8 ± 5.1%,–
O=c1c(O)c(-c2cc(O)c(O)c(O)c2)oc2cc(O)cc(O)c12 [Myricetin],–,–,–,–,17 mg,8.0 ± 4.9%,37.8 ± 8.4%,56.4 ± 1.5%,–
O=C(CCc1ccc(O)cc1)c1c(O)cc(O)cc1O[C@@H]1O[C@H](CO)[C@@H](O)[C@H](O)[C@H]1O [Phloridzin],–,–,–,–,–,–,–,–,Minimum Effective Dose [2]: 24 mg
CCCOC(=O)c1ccc(O)cc1 [Propylparaben],-4.1 ± 1.2%,-17.2 ± 2.4%,-27.3 ± 3.7%,9 mg,–,–,–,–,–
O=c1c(O)c(-c2ccc(O)c(O)c2)oc2cc(O)cc(O)c12 [Quercetin],–,–,–,–,16 mg,48.1 ± 15.0%,62.3 ± 4.4%,75.5 ± 2.2%,–
CCCCCCCCCCCCOS(=O)(=O)[O-].[Na+] [Sodium lauryl sulfate],4.6 ± 1.1%,6.4 ± 0.9%,4.9 ± 1.6%,14 mg,–,–,–,–,Amidase inhibition (amidase; 0.0005%): 9.6 ± 5.0%; Amidase inhibition (amidase; 0.005%): 19.3 ± 2.7%; Amidase inhibition (amidase; 0.05%): 66.1 ± 2.1%
C/C=C/C=C/C(=O)O [Sorbic acid],8.4 ± 1.6%,10.9 ± 2.1%,14.8 ± 0.1%,6 mg,–,–,–,–,–
COc1ccc(-c2oc3cc(O)cc(O)c3c(=O)c2O)cc1O [Tamarixetin],–,–,–,–,17 mg,3.5 ± 10.5%,27.9 ± 6.3%,28.9 ± 4.2%,–
C=CC(=C)CCC=C(C)C [β-Myrcene],–,–,–,–,8 mg,1.7 ± 1.3%,6.6 ± 4.1%,5.8 ± 2.7%,–
O=c1cc(-c2ccccc2)oc2ccc3ccccc3c12 [β-naphthoflavone],–,–,–,–,–,–,–,–,Inhibition of CYP 2E1 ([2]; 16.5 μM): 6.52%; Inhibition of CYP 2E1 ([2]; 66 μM): 15.40%; Minimum Effective Dose [2]: 15 mg

# Reference: patent US8969312B2, “Low side effect pharmaceutical composition containing antituberculosis drugs” (priority 2011, dated 2015)
